Read-outs that look alike come from different tables or passages of the source.

In test [1] the target is T1, spinach recombinant MGDG synthase (soMGD) (Spinacia oleracea, UniProt Q9SM44).
T1 construct: The cDNA fragments corresponding to the mature form of spinach MGDG synthase, soMGD1; made in house; host or cells: Escherichia coli BL21-DE3, pET-3a (NdeI-BamHI)
T1 sequence (Q9SM44 99-522): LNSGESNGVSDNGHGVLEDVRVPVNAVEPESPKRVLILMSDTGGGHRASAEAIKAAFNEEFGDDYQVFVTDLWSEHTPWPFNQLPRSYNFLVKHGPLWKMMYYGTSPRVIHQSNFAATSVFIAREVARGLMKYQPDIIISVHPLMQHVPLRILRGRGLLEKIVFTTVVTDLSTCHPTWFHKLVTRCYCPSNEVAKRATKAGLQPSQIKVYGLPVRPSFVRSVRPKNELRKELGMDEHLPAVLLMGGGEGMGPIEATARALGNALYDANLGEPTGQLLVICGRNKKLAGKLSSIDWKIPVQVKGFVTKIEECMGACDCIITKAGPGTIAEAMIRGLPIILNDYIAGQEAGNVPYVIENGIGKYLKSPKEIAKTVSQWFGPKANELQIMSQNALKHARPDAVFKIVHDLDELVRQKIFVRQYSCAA
The test is described as follows: MGDG synthase enzymatic assay of recombinant spinach MGD protein in mixed micelles. As to conditions: recombinant enzyme expressed in E. coli, FIG. 2, read-out: IC50, inhibition of spinach recombinant MGDG synthase (soMGD) activity. The format is biochemical. The source says: The cDNA fragments corresponding to the mature form of spinach MGDG synthase, soMGD1 [accession number CAB56218], and from the three isoforms that are present in Arabidopsis, i.e. atMGD1 [accession number BAB12042], atMGD2 [accession number T52269] and atMGD3 [accession number BAB12041] were inserted into the pET-3a expression vector from Novagen, as described by Miège C. et al., Eur. J. Biochem, 1999, 265, 990-1001 and Awai K. et al., Proc. Natl. Acad. Sci. U.S.A., 2001, 98, 10960-10965. All MGD sequences used in this study were inserted in NdeI-BamHI cloning site of the pET-3a vector. Induction of recombinant proteins was achieved following the pET expression system procedure. Isolated colonies of transfected Escherichia coli (BL21-DE3) were inoculated in LB medium (2.5 ml, 100 μg/ml carbenicillin) and grown at 37° C. When OD600 reached 0.5, the cell suspension was transferred to 15 ml of LB medium ([…] carbenicillin) and grown at 37° C. until OD600 reached 0.5. […]
The MGDG synthase enzymatic assay was achieved as described by Maréchal E. et al., J. Biol. Chem., 1995, 270, 5714-5722. […] J. Biochem. Physiol., 1959, 37, 911-917 and the radioactivity of the [^14C]-labelled MGDG ultimately produced, determined by liquid scintillation counting. […]

Test [2] deals with T2, MGDG synthase in isolated spinach chloroplast envelope membranes (Spinacia oleracea, UniProt Q9SM44).
T2 construct: envelope membranes purified from the lysate by sucrose centrifugation gradient; from tissue; host or cells: envelope membranes of chloroplasts from spinach leaves
T2 sequence (Q9SM44 99-522): T1 sequence (Q9SM44 99-522)
The test is described as follows: MGDG synthase activity in envelope membrane fractions isolated from spinach chloroplasts. The test is classed as biochemical. In outline:
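Envelope membranes purified from Percoll-isolated spinach chloroplasts by hypotonic lysis and sucrose gradient; MGDG synthase activity measured per published protocol.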

Test [3] deals with Chlamydomonas reinhardtii. The test is described as follows: Chlamydomonas reinhardtii growth assay. The test is classed as cell-based. As to conditions: day three (d=3). How it is done:
An axenic suspension of Chlamydomonas reinhardtii (10 μl) is introduced in a liquid TAP medium (Tris-Acetate-Phosphate medium, as described by Rochaix et al., (The Molecular Biology of Chloroplasts and Mitochondria in Chlamydomeonas; Advances in Photosynthesis, (1998) Vol. 7. Kluwer Academic Publishers, Dordrecht, The Netherlands) with or without compound according to the invention. The compounds to be tested have been solubilized in dimethylsulfoxide (DMSO) and supplied directly in the growth medium, at concentrations ranging from 0 to 200 μM. Final concentration of DMSO in medium was 10%. Chlamydomonas suspensions were then grown at 20° C., under continuous light (50 μE.m^−2.s^−1). Growth was assessed by counting the algae in a 40 μl aliquot using a Malassez cell and examining the cell vitality by standard microscopic methods.
Control herbicide is Triclosan.

Where [4] appears, read: Table 1, obtained in the same manner as FIG. 4, read-out: Inhibitory effect on MGDG synthesis in isolated spinach chloroplast envelope membranes.

Consider `O=C(OC[C@H](Cc1ccccc1)N(Cc1ccccc1)Cc1ccccc1)N1CCC(n2c(=O)[nH]c3ccccc32)CC1` [Compound 8, (S)-2-(dibenzylamino)-3-phenylpropyl 4-(1,2-dihydro-2-oxobenzo[d]imidazol-3-yl)piperidine-1-carboxylate], for which the IC50 in test [1] is 100 µM; in test [2] (setting [4]), 10 µM.

Take `O=C(OCCN(Cc1ccccc1)Cc1ccccc1)N1CCC(n2c(=O)[nH]c3ccccc32)CC1` [Compound 11, 2-(dibenzylamino)ethyl 4-(1,2-dihydro-2-oxobenzo[d]imidazol-3-yl)piperidine-1-carboxylate]: the IC50 in test [2] (setting [4]) came out at 15 µM. Moreover, the “morphology of Chlamydomonas when incubated with compound (FIG. 6)” value in test [3] is reported as “fails to divide”.

On to `C[C@@H](COC(=O)N1CCC(n2c(=O)[nH]c3ccccc32)CC1)N(Cc1ccccc1)Cc1ccccc1` [Compound 7, (S)-2-(dibenzylamino)propyl 4-(1,2-dihydro-2-oxobenzo[d]imidazol-3-yl)piperidine-1-carboxylate], for which the IC50 in test [1] was found to be 45 µM; in test [2] (setting [4]) it was 45 µM; in test [2] (spinach chloroplast envelope membranes, FIG. 4, read-out: IC50, MGDG synthase activity in envelope membranes that surround chloroplasts), 10 µM.

With `O=C(OC1CN(C(c2ccccc2)c2ccccc2)C1)N1CCC(n2c(=O)[nH]c3ccccc32)CC1` [Compound 13, 1-benzhydrylazetidin-3-yl 4-(1,2-dihydro-2-oxobenzo[d]imidazol-3-yl)piperidine-1-carboxylate], in test [2] (setting [4]), the IC50 fell in the range of 100 to 500 µM. Besides, in test [3], the “morphology of Chlamydomonas when incubated with compound (FIG. 6)” value is given as “fails to divide”.

For the origin of these results see patent US8637496B2, “Compounds having a monogalactosyldiacylglycerol synthase inhibitory activity as herbicide or algaecide, herbicide and algaecide compositions” (Commissariat a l'Energie Atomique, priority 2007, dated 2014).
